Experimental data from patent US20250206722A1, “SMALL MOLECULE INHIBITORS OF TEA DOMAIN FAMILY MEMBERS” (The Scripps Research Institute, priority 2022, published 2025).

How the values were obtained:
[1] = test system: NCI-H226 cells; assay: NCI-H226 proliferation assay (in house); assay type: cell-based; details: Homo sapiens, 120 h, 5 days, Cell TiterGlo, 20-point 1:2 dilution from 20 μM
Method: NCI-H226 Proliferation Assay
NCI-H226 cells were obtained from American Type Culture Collection (ATCC, CRL-5826) and cultured in RPMI 1640 with L-glutamine (Corning, 10-040-CV) supplemented with 10% fetal bovine serum (Gibco, 10438-026) and 1% penicillin-streptomycin (Gibco, 15070063). Cells were trypsinized, resuspended in growth medium, and diluted to a concentrated of 10,000 cells/mL. 500 cells, 50 μL of cell suspension, per well were then plated in a white 384-well plate (Corning) and incubated at 37° C., 5% CO2. After 24 hours incubation, 100 nL of test compounds in DMSO, 20-point 1:2 dilution starting from 20 μM (final concentration) in triplicate, were transferred to each well using an Agilent Bravo instrument outfitted with a pintool head. Cells were incubated at 37° C., 5% CO2 for 5 days followed by the addition of 30 μL of Cell TiterGlo (Promega; diluted 1:6 in water) to each well and luminescence values recorded using an EnVision plate reader. […]

[2] = test system: transcriptional activity of TEADs; assay: TEAD reporter assay (MCF7 TEAD-LUC reporter cells); assay type: cell-based; details: Homo sapiens, 24 hours, BrightGlo luminescence
Method: MCF7 TEAD-LUC reporter cells were obtained from BPS Bioscience, Inc. and cultured in DMEM medium (Corning, 10-013-CV) supplemented with 10% fetal bovine serum (Gibco, 10438-026), 1% penicillin-streptomycin (Gibco, 15070063), 1% non-essential amino acids (Gibco, 15070063), and 10 μg/mL insulin (Sigma, 10516). Cells were trypsinized, resuspended in growth medium, and diluted to a concentrated of 100,000 cells/mL. 5,000 cells, 50 μL of cell suspension, per well were then plated in a white 384-well plate (Corning) and incubated at 37° C., 5% CO2. After 24 hours incubation, 100 nL of test compounds in DMSO, 20-point 1:2 dilution starting from 20 μM (final concentration) in triplicate, were transferred to each well using an Agilent Bravo instrument outfitted with a pintool head. Cells were incubated at 37° C., 5% CO2 for 24 hours followed by the addition of 30 μL of BrightGlo (Promega; diluted 1:3 in water) to each well and luminescence values recorded using an EnVision plate reader.
The in vitro assay results of the compounds in the present invention were included in Table 1. The compounds described herein, inhibited the transcriptional activity of TEADs, as assessed by decreased luminance from a TEAD reporter cell line (MCF7 TEAD-LUC) in response to compound treatment.

SMILES | IC50 [1] [µM] | IC50 [2] [nM]
C=CC(=O)N1CC(Nc2nccnc2N2CC(c3ccc(F)cc3)C2)C1 [Example 108, 1-(3-((3-(3-(4-fluorophenyl)azetidin-1-yl)pyrazin-2-yl)amino)azetidin-1-yl)prop-2-en-1-one] | > 10 | –
C=C(F)C(=O)N1CC(Nc2nccnc2N2CC(c3ccc(F)cc3)C2)C1 [Example 109, 2-fluoro-1-(3-((3-(3-(4-fluorophenyl)azetidin-1-yl)pyrazin-2-yl)amino)azetidin-1-yl)prop-2-en-1-one] | > 10 | –
C=CC(=O)N1CCC(c2ncc(C)nc2Oc2ccc(C(F)(F)F)nc2)CC1 [Example 116, 1-(4-(5-methyl-3-((6-(trifluoromethyl)pyridin-3-yl)oxy)pyrazin-2-yl)piperidin-1-yl)prop-2-en-1-one] | 0.022 | –
C=C(F)C(=O)N1CCC(c2ncc(C)nc2Oc2ccc(C(F)(F)F)nc2)CC1 [Example 117, 2-fluoro-1-(4-(5-methyl-3-((6-(trifluoromethyl)pyridin-3-yl)oxy)pyrazin-2-yl)piperidin-1-yl)prop-2-en-1-one] | 0.158 | –
C=CC(=O)N1CCC(c2nccn(-c3ncc(C(F)(F)F)cn3)c2=O)CC1 [Example 118, 3-(1-acryloylpiperidin-4-yl)-1-(5-(trifluoromethyl)pyrimidin-2-yl)pyrazin-2(1H)-one] | > 10 | –
C=C(F)C(=O)N1CCC(c2cncnc2Oc2ccc(C(F)(F)F)nc2)CC1 [Example 127, 2-fluoro-1-(4-(4-((6-(trifluoromethyl)pyridin-3-yl)oxy)pyrimidin-5-yl)piperidin-1-yl)prop-2-en-1-one] | 66.8 | –

The next lines start with the values.

IC50 [1] [µM] | IC50 [2] [nM] | SMILES
23.9 | 8 | C=CC(=O)N[C@H]1C[C@H](Nc2nccnc2Nc2ccc(C(F)(F)F)cc2)C1 [Example 4, N-((1r,3r)-3-((3-((4-(trifluoromethyl)phenyl)amino)pyrazin-2-yl)amino)cyclobutyl) acrylamide]
3.3 | > 20000 | C=CC(=O)N1CCN(c2nccnc2Nc2ccc(C(F)(F)F)cc2)C[C@@H]1CCO [Example 17, (S)-1-(2-(2-hydroxyethyl)-4-(3-((4-(trifluoromethyl)phenyl)amino)pyrazin-2-yl)piperazin-1-yl)prop-2-en-1-one]
0.701 | 134 | C=CC(=O)N1CCN(c2nccnc2Nc2ccc(C(F)(F)F)cc2)C[C@@H]1C(N)=O [Example 18, (R)-1-acryloyl-4-(3-((4-(trifluoromethyl)phenyl)amino)pyrazin-2-yl)piperazine-2-carboxamide]
> 20 | > 20000 | C=CC(=O)N1CCN(c2nccnc2Nc2ccc(C(F)(F)F)cc2)C[C@H]1C(N)=O [Example 19, (S)-1-acryloyl-4-(3-((4-(trifluoromethyl)phenyl)amino)pyrazin-2-yl)piperazine-2-carboxamide]
2.73 | > 20000 | C=CC(=O)N1CCN(c2nccnc2Nc2ccc(C(F)(F)F)cc2)CC1CC(N)=O (stereo not shown) [Example 20, 2-(1-acryloyl-4-(3-((4-(trifluoromethyl)phenyl)amino)pyrazin-2-yl)piperazin-2-yl)acetamide]
5.04 | 5 | C=CC(=O)N1CCN(c2nccnc2Nc2ccc(OCF)cc2)CC1 [Example 36, 1-(4-(3-((4-(fluoromethoxy)phenyl)amino)pyrazin-2-yl)piperazin-1-yl)prop-2-en-1-one]
> 20 | 4 | C=CC(=O)N1CCN(c2nccnc2Nc2ccc(C(F)F)cn2)CC1 [Example 40, 1-(4-(3-((5-(difluoromethyl)pyridin-2-yl)amino)pyrazin-2-yl)piperazin-1-yl)prop-2-en-1-one]
0.166 | 17 | C=CC(=O)N1CCN(c2nccnc2N(C)c2ccc(C(F)(F)F)cn2)CC1 [Example 42, 1-(4-(3-(methyl(5-(trifluoromethyl)pyridin-2-yl)amino)pyrazin-2-yl)piperazin-1-yl)prop-2-en-1-one]
